Source: patent US10391098B2, “Antisense antibacterial compounds and methods” (priority 2014, dated 2019)
Where two headings read alike, the source gives them in different places. {(RXR)4XB} = cell-penetrating peptide (R arginine, X 6-aminohexanoic acid, B beta-alanine), conjugated via its C-terminal beta-alanine linked through a pip-PDA moiety; {TEG} = triethylene glycol end group (as defined in the publication); {Acetyl} = acetyl cap

What was measured:
E. coli SMS-3-5 = assay: MIC of classical antibiotics with added PPMOs that target resistance genes; format: cell-based
From the text: FIGS. 15A-15B show the minimum inhibitory concentration (MIC) of classical antibiotics with added PPMOs that target resistance genes in E. coli SMS-3-5. (FIG. 15A) MIC of ampicillin with blaT-(RXR)4XB (PPMO#66). (FIG. 15B) MIC of chloramphemicol with cmlA-(RXR)4XB (PPMO#67). N=3.
Minimal Inhibitory Concentration Assays.
Modulating antibiotic resistance with PPMOs could be an alternative therapeutic strategy. As proof of concept, PPMOs were designed to target specific, non-essential antibiotic resistance genes. blaT is part of the TEM beta-lactamase family and is found in environmental strains of E. coli, like SMS-3-5.

[1] = tested on: multi-drug-resistant strain of Acinetobacter baumannii (AYE); assay: MIC of colistin, meropenem, tobramycin with added PPMO (microdilution), synergy by isoboles; conditions: for MIC: Acinetobacter baumannii
Procedure: Minimal Inhibitory Concentration Assays. Minimal inhibitory concentration (MIC) assays were performed in Mueller Hinton II medium using the microdilution method as described by the Clinical and Laboratory Standards Institute (CLSI). Optical density (OD) of cultures was read in a microplate spectrophotometer at 595-600 nm. After 18-20 hours of aerobic growth (200-250 rpm) at 37° C., 100 μl cultures with an OD of <0.06 were scored as no growth.
Synergy Studies. MICs were performed with a PPMO and a classic antibiotic (as indicated) in a 96 well plate. The PPMO was diluted first horizontally down the plate and the classic antibiotic was diluted across the rows of the plate. Inhibition was determined by visual observation and OD600 (see Berenbaum et al., J Antimicrob Chemother 12:555-563, 1983; and Berenbaum, J Infect Dis 137:122-130, 1978). […] Synergy was quantified using the method of isoboles as described (see Tallarida, Genes Cancer. 2:1003-8, 2011): (Effective concentration of antibiotic/MIC of antibiotic)+(Effective concentration of PPMO/MIC of PPMO). Calculated values less than 1 indicated synergy.
The MIC of the antibiotics colistin, meropenem, and tobramycin was measured using the microdilution method of the Clinical Laboratory Standards Institute in a 96-well microtiter plate format. Multiple, identical dilution series of each antibiotic were included on each microtiter plate. In each dilution series of antibiotic, a fixed amount of PPMO was added. Each dilution series of antibiotic included a different concentration of PPMO.

A. baumannii AYE [2] = assay: MIC of tobramycin with adeA PPMO in nutrient rich and minimal media; format: cell-based; conditions: for MIC of tobramycin with adeA PPMO: 8 μM adeA PPMO
[3] = tested on: Acinetobacter spp. (~34 strains); assay: PPMO MIC (IC75) in panel of Acinetobacter strains, rich and minimal media; conditions: nutrient rich MHII media
Procedure: Bacteria. Bacterial strains were obtained through the clinical microbiology lab at UT Southwestern unless otherwise noted. Strains also included those purchased through ATCC, the E. coli Genetic Stock Center (Yale University), or received from collaborators. They included both genome-sequenced isolates as well as clinical isolates with varying levels of antibiotic resistance. Single colonies were grown aerobically to stationary phase (1-2 mLs at 37° C., 250 rpm) in Mueller Hinton cation-adjusted (MH II) broth (Becton-Dickinson Difco BBL, Franklin Lakes, N.J., USA). The OD600 was taken and a working stock of 5×10^5 was generated based on the individual strain's colony forming units (CFU)/mL/OD. Working stocks were diluted in 150 mM NaCl and plated on tryptic-soy agar w/5% sheep blood plate (Remel, Lenexa, Kans.) to verify the starting concentration. For minimal nutrient conditions, E. coli was incubated in MOPS minimal medium (Neidhart et al., J Bacteriol 119:736-747, 1974), and Acinetobacter was performed in AB minimal media (Agrobacterium minimal media) with 10 mM citrate (Clark, J Mol Biol 23:99-112, 1967).
Minimal Inhibitory Concentration Assays. […] Optical density (OD) of cultures was read in a microplate spectrophotometer at 595-600 nm. After 18-20 hours of aerobic growth (200-250 rpm) at 37° C., 100 μl cultures with an OD of <0.06 were scored as no growth. […]

A. baumannii AYE [4] = assay: Transmission electron microscopy of PPMO-treated bacteria; format: cell-based; conditions: 40 μM

O=C(N[C@H](CO)[C@H](O)c1ccc([N+](=O)[O-])cc1)C(Cl)Cl [chloramphenicol, reference compound]
MIC (E. coli SMS-3-5; Escherichia coli, SMS35, chloramphenicol alone): > 512 µg/mL

C[C@@H](O)[C@H]1C(=O)N2C(C(=O)O)=C(S[C@@H]3CN[C@H](C(=O)N(C)C)C3)[C@H](C)[C@H]12 [meropenem, reference compound]
MIC ([1]; read-out: MIC of meropenem): 2 µg/mL

NC[C@H]1O[C@H](O[C@H]2[C@H](O)[C@@H](O[C@H]3O[C@H](CO)[C@@H](O)[C@H](N)[C@H]3O)[C@H](N)C[C@@H]2N)[C@H](N)C[C@@H]1O [tobramycin, reference compound]
MIC of tobramycin alone (A. baumannii AYE [2]; AB Minimal Media): 64 µg/mL | MIC (A. baumannii AYE [2]; Acinetobacter baumannii, MHII, read-out: MIC of tobramycin alone): 64 µg/mL | MIC ([1]; read-out: MIC of tobramycin): 64 µg/mL

PPMO#6: acpP PPMO ATATCGCTCAC; 5' (RXR)4XB, 3' acetyl (all phosphorodiamidate morpholino (PMO), 5' {(RXR)4XB}, 3' {Acetyl}; further chemistry not given here)
IC75 MIC [3]: 2000 nM

PPMO#7: acpP PPMO ATATCGCTCAC; 5' TEG, 3' (RXR)4XB (all phosphorodiamidate morpholino (PMO), 5' {TEG}, 3' {(RXR)4XB}; further chemistry not given here)
MIC of colistin in the presence of PPMO ([1]; 2 μM of PPMO): 0.25 µg/mL | MIC of tobramycin in the presence of PPMO ([1]; 4 μM PPMO): 2 µg/mL | synergy (method of isoboles; values less than 1 indicate synergy), colistin + PPMO ([1]; colistin): 0.75 | synergy (method of isoboles), meropenem + PPMO ([1]; meropenem): 0.75 | synergy (method of isoboles), tobramycin + PPMO ([1]; tobramycin): 0.625 | IC75 MIC [3]: 4000 nM | cell morphology by TEM (A. baumannii AYE [4]; 6 hours of incubation, MHII media): cell wall disruption | earliest time at which cell wall disruption was seen (A. baumannii AYE [4]; data not shown): 3 h

PPMO#65: adeA PPMO ATACTGTCCAA; 5' TEG, 3' (RXR)4XB (listed as DNA, chemistry not fully specified)
MIC of tobramycin with adeA PPMO (A. baumannii AYE [2]; MHII): 4 µg/mL | MIC of tobramycin with adeA PPMO (A. baumannii AYE [2]; minimal media): 1 µg/mL

PPMO#66: blaT PPMO CTCTTCCTTTT; 5' TEG, 3' (RXR)4XB (listed as DNA, chemistry not fully specified)
effect of increasing concentrations of blaT PPMO on MIC of ampicillin (E. coli SMS-3-5; FIG. 15A): progressively decreased

PPMO#67: cml PPMO TCCTTCTGATT; 5' TEG, 3' (RXR)4XB (listed as DNA, chemistry not fully specified)
effect of increasing concentrations of cmlA PPMO on MIC of chloramphenicol (E. coli SMS-3-5; FIG. 15B): progressively decreases in a dose-dependent fashion

colistin [reference compound]
MIC of colistin ([1]; without PPMO): 1 µg/mL
